# Results: patent US10722516B2, “Use of landiolol hydrochloride in the long-term treatment of tachyarrhythmias” (AOP Orphan Pharmaceuticals AG, priority 2013, dated 2020)
# “Also recorded” adds a separate entry of the source. Structures can show the parent of a compound that is named as a salt.
# System: healthy volunteers
# Assay: 24 h long-term infusion study, AOP LDLL600 against esmolol: heart rate
# Type: in vivo, human
# Conditions: for heart rate: Table 1
# Method: A single centre prospective, randomized, double blind, crossover, pharmacokinetic, safety and tolerability study to compare long-term infusion administration of AOP LDLL600 against esmolol in healthy volunteers was performed.
# Landiolol hydrochloride lyophilized (LDLL600) comprises 600 mg landiolol hydrochloride, 600 mg mannitol, pH 6.5. The primary packing of LDLL600 is 50 ml vial, the reconstitution volume is 50 ml and the final product concentration is 12 mg/mL landiolol HCl.
# 12 subjects were administered AOP LDLL600 or Esmolol (Brevibloc, 2500 mg/250 ml) in 1:1 ratio in double-blind, randomized, cross-over setting. PK, systemic cardiovascular and local tolerability and safety of the 24 h-long term infusions of three dose levels of both IMPs during each treatment period were assessed.
# Landiolol was infused over 24 h in a dose of 10 μg/KG/min (2 hrs), followed by 20 μg/KG/min (2 hrs), followed by 40 μg/KG/min for 20 hrs.
# Dosing algorithm was body weight divided by 20, 10 and 5 in ml/h giving 10, 20 and 40 μg/KG/min at a concentration of 12 mg/ml. No severe adverse drug reactions, mild local reactions, 1 severe local reaction (Esmolol High Dose).
# Landiolol was infused over 24 h in a dose of 10, 20 and 40 μg/KG/min, i.e. 10 μg/KG/min landiolol were administered for 2 hrs, followed by 2 hrs administration of 20 μg/KG/min and further followed by 20 hrs administration of 40 μg/KG/min.
# Post-infusion follow up measurements were performed immediately after 20 hrs administration study, i.e. 2, 4 min etc. after stop of landiolol administration.
# [1] = LD infusion (landiolol 10, esmolol 50 μg/kg/min), 3 min
# [2] = LD infusion (landiolol 10, esmolol 50 μg/kg/min), 4 min
# [3] = LD infusion (landiolol 10, esmolol 50 μg/kg/min), 6 min
# [4] = LD infusion (landiolol 10, esmolol 50 μg/kg/min), 8 min
# [5] = LD infusion (landiolol 10, esmolol 50 μg/kg/min), 12 min
# [6] = LD infusion (landiolol 10, esmolol 50 μg/kg/min), 16 min
# [7] = LD infusion (landiolol 10, esmolol 50 μg/kg/min), 20 min
# [8] = LD infusion (landiolol 10, esmolol 50 μg/kg/min), 30 min
# [9] = LD infusion (landiolol 10, esmolol 50 μg/kg/min), 60 min
# [10] = LD infusion (landiolol 10, esmolol 50 μg/kg/min), 90 min
# [11] = LD infusion (landiolol 10, esmolol 50 μg/kg/min), 2 h
# [12] = MD infusion (landiolol 20, esmolol 100 μg/kg/min, after 2 h LD), 2 min
# [13] = MD infusion (landiolol 20, esmolol 100 μg/kg/min, after 2 h LD), 3 min
# [14] = MD infusion (landiolol 20, esmolol 100 μg/kg/min, after 2 h LD), 4 min
# [15] = MD infusion (landiolol 20, esmolol 100 μg/kg/min, after 2 h LD), 6 min
# [16] = MD infusion (landiolol 20, esmolol 100 μg/kg/min, after 2 h LD), 8 min
# [17] = MD infusion (landiolol 20, esmolol 100 μg/kg/min, after 2 h LD), 12 min
# [18] = MD infusion (landiolol 20, esmolol 100 μg/kg/min, after 2 h LD), 16 min
# [19] = MD infusion (landiolol 20, esmolol 100 μg/kg/min, after 2 h LD), 20 min
# [20] = MD infusion (landiolol 20, esmolol 100 μg/kg/min, after 2 h LD), 30 min
# [21] = MD infusion (landiolol 20, esmolol 100 μg/kg/min, after 2 h LD), 60 min
# [22] = MD infusion (landiolol 20, esmolol 100 μg/kg/min, after 2 h LD), 90 min
# [23] = MD infusion (landiolol 20, esmolol 100 μg/kg/min, after 2 h LD), 2 h
structure (smiles),measurement,setting,value
"CC1(C)OC[C@@H](COC(=O)CCc2ccc(OC[C@@H](O)CNCCNC(=O)N3CCOCC3)cc2)O1 [Landiolol, (−)-[(S)-2,2-dimethyl-1,3-dioxolan-4-yl]methyl 3-[4-[(S)-2-hydroxy-3-(2-morpholinocarbonylamino)ethylamino]propoxy]phenylpropionate monohydrochloride]","heart rate, Mean (SD)","LD infusion (landiolol 10, esmolol 50 μg/kg/min), 2 min",65.6 (5.09) beats per minute
same,"change of heart rate from predose, Mean (SD)",[1],−2.5 (7.48) beats per minute
same,"heart rate, Mean (SD)",[1],64.8 (6.82) beats per minute
same,"change of heart rate from predose, Mean (SD)",[2],−2.8 (6.38) beats per minute
same,"heart rate, Mean (SD)",[2],64.6 (6.97) beats per minute
same,"change of heart rate from predose, Mean (SD)",[3],−1.7 (7.97) beats per minute
same,"heart rate, Mean (SD)",[3],65.7 (8.78) beats per minute
same,"change of heart rate from predose, Mean (SD)",[4],−3.6 (9.07) beats per minute
same,"heart rate, Mean (SD)",[4],63.8 (6.57) beats per minute
same,"change of heart rate from predose, Mean (SD)",[5],−4.7 (10.99) beats per minute
same,"heart rate, Mean (SD)",[5],62.7 (7.71) beats per minute
same,"change of heart rate from predose, Mean (SD)",[6],−7.1 (5.32) beats per minute
same,"heart rate, Mean (SD)",[6],60.3 (6.72) beats per minute
same,"change of heart rate from predose, Mean (SD)",[7],−7.3 (10.51) beats per minute
same,"heart rate, Mean (SD)",[7],60.0 (6.05) beats per minute
same,"change of heart rate from predose, Mean (SD)",[8],−7.8 (12.55) beats per minute
same,"heart rate, Mean (SD)",[8],59.5 (8.55) beats per minute
same,"change of heart rate from predose, Mean (SD)",[9],−9.6 (11.89) beats per minute
same,"heart rate, Mean (SD)",[9],57.8 (8.05) beats per minute
same,"change of heart rate from predose, Mean (SD)",[10],−9.3 (11.33) beats per minute
same,"heart rate, Mean (SD)",[10],58.1 (7.14) beats per minute
same,"change of heart rate from predose, Mean (SD)",[11],−11.2 (11.75) beats per minute
same,"heart rate, Mean (SD)",[11],56.2 (5.89) beats per minute
same,"change of heart rate from predose, Mean (SD)",MD Predose (end of 2 h LD),−11.2 (11.75) beats per minute
same,"heart rate, Mean (SD)",MD Predose (end of 2 h LD),56.2 (5.89) beats per minute
same,"change of heart rate from predose, Mean (SD)",[12],−11.1 (10.73) beats per minute
same,"heart rate, Mean (SD)",[12],56.3 (6.48) beats per minute
same,"change of heart rate from predose, Mean (SD)",[13],−9.8 (7.90) beats per minute
same,"heart rate, Mean (SD)",[13],57.6 (5.02) beats per minute
same,"change of heart rate from predose, Mean (SD)",[14],−10.9 (9.26) beats per minute
same,"heart rate, Mean (SD)",[14],56.4 (6.87) beats per minute
same,"change of heart rate from predose, Mean (SD)",[15],−11.2 (11.10) beats per minute
same,"heart rate, Mean (SD)",[15],56.2 (7.86) beats per minute
same,"change of heart rate from predose, Mean (SD)",[16],−9.7 (10.96) beats per minute
same,"heart rate, Mean (SD)",[16],57.7 (7.24) beats per minute
same,"change of heart rate from predose, Mean (SD)",[17],−12.8 (10.17) beats per minute
same,"heart rate, Mean (SD)",[17],54.5 (6.07) beats per minute
same,"change of heart rate from predose, Mean (SD)",[18],−10.4 (11.42) beats per minute
same,"heart rate, Mean (SD)",[18],56.9 (6.88) beats per minute
same,"change of heart rate from predose, Mean (SD)",[19],−12.8 (10.52) beats per minute
same,"heart rate, Mean (SD)",[19],54.5 (6.86) beats per minute
same,"change of heart rate from predose, Mean (SD)",[20],−9.0 (11.92) beats per minute
same,"heart rate, Mean (SD)",[20],58.3 (8.53) beats per minute
same,"change of heart rate from predose, Mean (SD)",[21],−11.3 (9.86) beats per minute
same,"heart rate, Mean (SD)",[21],56.0 (5.17) beats per minute
same,"change of heart rate from predose, Mean (SD)",[22],−10.2 (10.81) beats per minute
same,"heart rate, Mean (SD)",[22],57.2 (6.79) beats per minute
same,"change of heart rate from predose, Mean (SD)",[23],−11.3 (9.41) beats per minute
same,"heart rate, Mean (SD)",[23],56.1 (7.38) beats per minute
same,"heart rate, Mean (SD)",Predose (before first IMP administration),67.3 (8.18) beats per minute
same,heart rate,Control (before administration),67.8 beats per minute
same,heart rate,"high dose (landiolol 40, esmolol 200 μg/kg/min), time 720 min",57.5 beats per minute
same,heart rate,"high dose (landiolol 40, esmolol 200 μg/kg/min), time 1200 min",53.6 beats per minute
same,heart rate,"low dose (landiolol 10, esmolol 50 μg/kg/min), time 12 min",62.7 beats per minute
same,heart rate,"low dose (landiolol 10, esmolol 50 μg/kg/min), time 16 min",60.3 beats per minute
same,heart rate,"low dose (landiolol 10, esmolol 50 μg/kg/min), time 30 min",59.5 beats per minute
same,heart rate,"low dose (landiolol 10, esmolol 50 μg/kg/min), time 60 min",57.8 beats per minute
same,heart rate,"low dose (landiolol 10, esmolol 50 μg/kg/min), time 120 min",56.2 beats per minute
same,heart rate,"medium dose (landiolol 20, esmolol 100 μg/kg/min), time 240 min",56.1 beats per minute
same,heart rate,time after administration 12 min (end at 1440 min),63.5 beats per minute
same,heart rate,time after administration 16 min,67 beats per minute
same,heart rate,time after administration 30 min,70 beats per minute
same,heart rate,time after administration 60 min,69.2 beats per minute
same,heart rate,time after administration 120 min,66.8 beats per minute
same,overshoot effect on heart rate,"after termination of long term administration, listed as landiolol-hydrochloride, monohydrochloride",avoiding any overshoot effect; also recorded: no significant overshoot effect occurs
same,tolerance effect,long term administration,without showing any tolerance effects
same,heart rate effect during administration,"long term administration, listed as landiolol-hydrochloride, monohydrochloride",persistent reduction of heart rate; also recorded: significantly lower than the heart rate and/or blood pressure values achieved under esmolol long-term treatment
